# Source: PMC6028453, “BrlR from Pseudomonas aeruginosa is a receptor for both cyclic di-GMP and pyocyanin” (Nature Communications, 2018)
# Assays:
# BrlR = biological target: T1, BrlR (Pseudomonas aeruginosa, UniProt Q9HUT5); test: FP competition experiment, wild-type BrlR; type: binding; conditions: 320 μM BrlR, 1 nM F-c-di-GMP, 760 μM c-di-GMP added
# T1 construct: His6-SUMO (N, cleaved yes); made in house; host or cells: E. coli BL21 DE3
# Experimental: Supplementary Figure 4: Fluorescence polarization competition experiment. Wt BrlR was added to a final concentration of 320 μM in the reaction buffer containing 1 nM F-c-di-GMP, and the binding […]
# curve was recorded. […] After the addition of
# 760 μM c-di-GMP (indicated with an arrow in the figure), an apparent competition with the fluoresceinated c-di-GMP could be observed by the remarkable decrease in millipolarization units.
# (§1) (1 picture or pasted object on this page, not shown here)
# BrlR R67A DNA binding = biological target: T2, BrlR R67A DNA binding (Pseudomonas aeruginosa, UniProt Q9HUT5, R67A); test: EMSA, BrlR R67A; type: biochemical
# T2 construct: His6-SUMO (N, cleaved yes); made in house; host or cells: E. coli BL21 DE3
# T2 sequence (Q9HUT5 whole entry R67A): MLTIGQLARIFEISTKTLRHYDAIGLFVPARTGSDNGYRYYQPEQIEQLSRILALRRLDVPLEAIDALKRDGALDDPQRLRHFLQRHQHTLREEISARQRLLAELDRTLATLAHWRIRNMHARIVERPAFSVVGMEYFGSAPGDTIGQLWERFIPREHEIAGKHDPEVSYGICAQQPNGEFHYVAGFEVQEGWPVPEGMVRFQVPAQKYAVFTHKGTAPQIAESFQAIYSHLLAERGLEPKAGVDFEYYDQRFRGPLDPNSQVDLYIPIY
# Experimental: (§2) A 6-carboxy-fluorescein (FAM)-labeled 36-bp brlR promoter DNA (PbrlR) or 80-bp mexA/mexE promoter DNA (PmexA/PmexE) probes (~0.375 pmol), BrlR protein and varying amounts of inducers were incubated in binding buffer (10 mM Tris HCl [pH 7.4], 50 mM KCl, 1 mM DTT, […] and 5 ng/mL poly [dI-dC]) for 60 min at 25 °C. Finally, glycerol was added to a concentration of 6.5%. The samples were subjected to a 5% polyacrylamide gel electrophoresis and run in 0.5 × Tris-borate-EDTA buffer at 80 V for 1 h at room temperature. Imaging and data analyses were performed using a Typhoon Scanner (GE Healthcare) and Imagequant software. The probes used are listed in Supplementary Table 1.
# BrlR mutant R67A = biological target: T3, BrlR mutant R67A (Pseudomonas aeruginosa, UniProt Q9HUT5, R67A); test: FP binding assay, BrlR R67A
# T3 construct: His6-SUMO (N, cleaved yes); made in house; host or cells: E. coli BL21 DE3
# T3 sequence (Q9HUT5 whole entry R67A): as above
# Experimental: F-c-di-GMP and F-c-di-AMP both contain a fluorophore at one of the 2′-ribose hydroxyls of c-di-GMP and c-di-AMP, respectively (Fig. 2f). To measure the binding of c-di-GMP and c-di-AMP to BrlR variants, 1 nM F-c-di-GMP or F-c-di-AMP was incubated with increasing amounts of indicated BrlR WT, BrlR mutation, or BrlR-C in reaction buffer (25 mM HEPES, 100 mM NaCl, pH 7.5) at 25 °C for 20 min. 1 nM fluorescein was incubated with BrlR WT in the same reaction buffer at 25 °C. FP measurements were conducted on a Synergy 4 Microplate Reader (BioTek) at 25 °C. All experiments were performed in triplicate. The curves were fitted to deduce binding affinities by GraphPad Prism 5.
# BrlR–c-di-GMPs interactions in two separate c-di-GMP binding sites
# In the first binding site, c-di-GMP is half accommodated by the antiparallel β-sheet and two residues (M1 and D35). In detail, the backbone amide protons of the first M1 residue form a hydrogen bond (H-bond) with the phosphate oxygen atom of c-di-GMP, and the side chain of R31 forms two H-bonds with the Gua1 base. The residue D35 also forms an H-bond with the Gua1 base. The aromatic ring of Y40 interacts with the Gua1 base through a hydrophobic π-π interaction. In addition, the hydroxyl group of the Y270 side chain from another subunit interacts with the phosphate 2 of c-di-GMP via an H-bond (Fig. 2d). […]
# BrlR-C = biological target: T4, BrlR-C (Pseudomonas aeruginosa, UniProt Q9HUT5); test: FP competition experiment, BrlR-C; type: binding; conditions: 550 μM BrlR-C, 1 nM F-c-di-GMP
# T4 construct: His6 (cleaved yes); made in house; host or cells: E. coli (same protocol as BrlR, induction at 18 °C)
# T4 sequence (Q9HUT5 120-270): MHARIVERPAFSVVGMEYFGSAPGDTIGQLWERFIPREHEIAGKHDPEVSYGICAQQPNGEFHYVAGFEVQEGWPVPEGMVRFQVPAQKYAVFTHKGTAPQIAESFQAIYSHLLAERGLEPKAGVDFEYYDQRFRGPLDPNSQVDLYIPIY
# Experimental: Supplementary Figure 11: FP analyses of F-c-di-GMP binding to BrlR-C. (a) Isotherms of BrlR-C binding to F-c-di-GMP. The binding experiment was carried out at 25 °C in a buffer containing 150 mM NaCl, 25 mM Tris·HCl (pH 7.5), and 1 nM F-c-di-GMP. Increasing concentrations of BrlR-C were titrated into the reaction mixture to obtain the binding isotherms. (b) Fluorescence polarization competition experiment of BrlR-C. As a control, 550 μM BrlR-C was added to the reaction tube containing 1 nM F-c-di-GMP, and different competitors were respectively added in the solution and the values of millipolarization were recorded.
# as §1
# BrlR-DNA binding (PbrlR) = biological target: T5, BrlR-DNA binding (PbrlR) (Pseudomonas aeruginosa, UniProt Q9HUT5); test: EMSA, wild-type BrlR with PbrlR DNA; type: biochemical
# T5 construct: His6-SUMO (N, cleaved yes); made in house; host or cells: E. coli BL21 DE3
# T5 sequence (Q9HUT5 whole entry): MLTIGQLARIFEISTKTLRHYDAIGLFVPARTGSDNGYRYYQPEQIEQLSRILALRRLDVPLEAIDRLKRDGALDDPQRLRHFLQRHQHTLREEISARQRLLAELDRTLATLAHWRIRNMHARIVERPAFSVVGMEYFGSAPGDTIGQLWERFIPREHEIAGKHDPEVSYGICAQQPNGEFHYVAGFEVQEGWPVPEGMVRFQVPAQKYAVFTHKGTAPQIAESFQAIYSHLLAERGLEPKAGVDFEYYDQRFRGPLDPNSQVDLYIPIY
# Experimental: as §2
# T1 sequence (Q9HUT5 whole entry): as above
smiles,measurement,setting,value
"Nc1nc2c(ncn2[C@@H]2O[C@@H]3COP(=O)(O)O[C@H]4[C@@H](O)[C@H](n5cnc6c(=O)[nH]c(N)nc65)O[C@@H]4COP(=O)(O)O[C@H]3[C@H]2O)c(=O)[nH]1 [c-di-GMP, cyclic diguanylate monophosphate]",competition with F-c-di-GMP binding to BrlR,BrlR,outcompeted specifically
same,DNA bound in the presence vs absence of c-di-GMP,BrlR R67A DNA binding,~ 5.2 fold
same,Kd,BrlR mutant R67A,16.4 ± 1 µM
same,competition with F-c-di-GMP binding to BrlR-C,BrlR-C,not
same,effect of c-di-GMP and pyocyanin together on BrlR-DNA binding,"BrlR-DNA binding (PbrlR); PbrlR, c-di-GMP, pyocyanin, and both",cooperatively enhance
same,BrlR-DNA complex in the presence vs absence of c-di-GMP,"BrlR-DNA binding (PbrlR); wild-type BrlR, band densitometry",5.5 fold
same,effect on BrlR-PbrlR DNA binding (in words),"BrlR-DNA binding (PbrlR); wild-type BrlR, increasing concentrations of compound",significantly promoted
